# Like-named read-outs stand apart in the source and are kept apart here.
# Legend:
# [1] = tested on: Hemophilia B knockout mice; assay: Western blot for antibody to murine F.IX in hemophilic mice injected with AAV-mF.IX; type: in vivo, mouse; settings: up to five months of observation
# Experimental: (§1) Hemophilia B knockout mice were injected intramuscularly with AAV mF.IX (1×10^11) at day 0, without or with immunomodulation therapy. The mice were bled at monthly time points in citrate. The assays which were performed included a clotting based-apTT (measure of correction of hemostatic defect) assay and Bethesda titer (1 BU defined as 50% residual FIX in a 2 hour 50:50 mix). In addition, antibody assays, Western blot analysis and ELISA assays were performed. The immunomodulatory strategies used to address formation of antibodies to the transgene product were as follows: […]
# [2] = tested on: Hemophilia B knockout mice; type: in vivo, mouse; settings: for Bethesda titer of AAV-F.IX treated mice: values of individual mice; for correction of the aPTT (in words): hemophilia B mice injected with AAV-mF.IX, with or without immunomodulation
# Experimental: A cohort of six mice were injected intramuscularly with an adeno-associated virus (AAV) vector encoding the murine F.IX transgene (total dose 1×10^11 vector genomes/mouse). Mice were bled at monthly intervals via tail vein transection, and clotting times of plasma were measured by aPTT assay. […] Two other cohorts of mice received immunomodulation around the time of vector administration in an effort to suppress inhibitor formation. One cohort (n=4) received anti-CD40L antibody at a total dose of 0.4 mg per mouse given in four divided doses (0.1 mg at days -3, 0, 3, 6) while the other cohort received cyclophosphamide (CYP, n=4) at doses of 50 mg/kg per mouse biweekly at four time points.
# as §1
compound,measurement,setting,value
"O=P1(N(CCCl)CCCl)NCCCO1 (centres unmarked) [CYP, cyclophosphamide]",antibody to murine F.IX on Western blot (in words),[1],did not develop antibodies
same,Bethesda titer of AAV-F.IX treated mice,[2]; 1 month after vector,0/0/0
same,Bethesda titer of AAV-F.IX treated mice,[2]; 2 months after vector,0/0/0
same,period over which aPTT correction was maintained,[2]; after vector injection,greater than ten months
same,aPTT,"[2]; all mice at one month after vector, normal 22-39 s",28.9 to 30.9 s
same,animals with no evidence of inhibitor antibody formation,"[2]; four doses at two week intervals, at least five months after vector",3/3
same,correction of the aPTT (in words),[2],nearly complete correction
same,correction of the aPTT (in words),[2]; listed as cyclophosphamide,sustained correction of the aPTT

# Source: patent US8063022B1, “Methods for preventing formation of inhibitory antibodies in the setting of gene therapy” (priority 1999, dated 2011)
